# System: S. cerevisiae
# Test: Growth of S. cerevisiae strains in overlay/underlay candidates (OD600)
# Type: cell-based, Saccharomyces cerevisiae
# Conditions: 1-10% (v/v), particularly 1-2.5% (v/v), in IPM and isopar M
row,Compound,toxicity to growth of mixture in IPM or isopar M
1,"CC(C)(C)OC(=O)CC(=O)OC(C)(C)C [di-cert-butyl malonate, Di-tert-butyl malonate]",much lower toxicity

# System: S. cerevisiae
# Test: as above
# Type: cell-based, Saccharomyces cerevisiae
# Conditions: 20% (v/v) overlay/underlay; YP+2% (w/v) galactose
# Description: To test non-toxic organic overlays/underlays, different non-production background and production strains of S. cerevisiae (Table 1) were inoculated from colonies on YPD agar plates and grown for approximately 24 hours in 96 well deepwell plates containing 300 μL YP+2% (w/v) glucose at 30° C. with 950 rpm shaking (3 mm throw) and maintained at 85% humidity. These cultures were then used to inoculate 96 well deepwell plates containing 300 μL YP+2% (w/v) galactose (YP gal) or glucose (YP glu), with or without addition of 0.04% (w/v) hexanoic acid (HA) plus 20% (v/v) (60 μL) of different overlays/underlays or no organic phase, under the same conditions described for precultures. At three different times (specified in plots), biological triplicate cultures were sampled and optical density at 600 nm (0D600) was measured as a proxy for biomass growth on a SpectraMax plate reader, with dilution in water to allow measurements to be within the linear range of instrumental readings. Averaged OD600s across at least three biological replicates of each strain/overlay condition at each sampling time. Multiple sets of measurements were performed on large groups of overlay and underlay candidates in different batches.
row,Compound,"toxicity to growth (OD600), with galactose"
1,"CC(C)(C)OC(=O)CC(=O)OC(C)(C)C [di-cert-butyl malonate, Di-tert-butyl malonate]",appearing toxic or to induce substantial lag
2,CCOC(=O)C(CC)(CC)C(=O)OCC [diethyl diethylmalonate],substantial lag

# Same assay, conditions: 20% (v/v) overlay/underlay; YP+2% (w/v) galactose or glucose; 96 well deepwell plates; production and non-production strains
row,Compound,toxicity to growth (OD600 as proxy for biomass growth)
1,"2,2,4-trimethyl-1,3-pentanediol monoisobutyrate [Texanol]",inhibitory to growth
2,CCCCCCCCCCO [Decanol],toxic to growth
3,CCCCOC(=O)CCCCCCCCC(=O)OCCCC [Dibutyl sebacate],completely non-inhibitory to growth
4,"CCCCCCCCCCCCCC(=O)OC(C)C [IPM, isopropyl myristate]",non-toxic
5,CCCCCCCC(=O)OC(C)C [Isopropyl octanoate],moderately inhibitory but allowed for some growth
6,CCCCCCCC(=O)OCC(COC(=O)CCCCCCC)OC(=O)CCCCCCC [Tricaprylin],fairly toxic
7,CCCCCCCCCCCC(=O)OCCCC [butyl laurate],non-toxic
8,CCCCOC(=O)CCCCC(=O)OCCCC [dibutyl adipate],no apparent toxicity
9,CCOC(=O)CCCCCCCCC(=O)OCC [diethyl sebacate],modest growth by most strains
10,CC(C)OC(=O)CCCCC(=O)OC(C)C [diisopropyl adipate],Some growth was observed
11,CCCCCCCCCCCC [dodecane],Lack of toxicity
12,CCCCCCCCCC(=O)OCC [ethyl decanoate],increasingly non-toxic
13,CCCCCCCCCCCC(=O)OCC [ethyl laurate],non-toxic
14,CCCCCCCCCCCCCC(=O)OCC [ethyl myristate],non-toxic
15,CCCCCCCCCCCCCCCC [hexadecane],Lack of toxicity
16,CCCCCCOC(=O)CCCCC [hexyl hexanoate],moderately non-toxic
17,CCCCCCCCCC(=O)OC [methyl decanoate],moderately inhibitory to growth but still allowed for growth
18,CCCCCCCCCCCCCC(=O)OC [methyl myristate],non-toxic
19,CCCCCCCCOC(C)=O [octyl acetate],toxic
20,CCCCCCCC/C=C\CCCCCCCCO [oleyl alcohol],supports robust growth
21,CCCCCCCCCCCCCC [tetradecane],Lack of toxicity

# Same assay, conditions: 20% (v/v) overlay/underlay; YP+2% (w/v) glucose
row,Compound,"toxicity to growth (OD600), with glucose"
1,CCCCCCCC(=O)OCC(COC(=O)CCCCCCC)OC(=O)CCCCCCC [Tricaprylin],allowed some growth of all strains
2,"CC(C)(C)OC(=O)CC(=O)OC(C)(C)C [di-cert-butyl malonate, Di-tert-butyl malonate]",supported growth of all strains
3,CCOC(=O)C(CC)(CC)C(=O)OCC [diethyl diethylmalonate],modest growth by most strains

# System: not listed separately
# Test: Partitioning of divarinic acid and divarin into organic overlays (96 well deepwell plate, HPLC)
# Type: physicochemical
# Conditions: Delft medium+CSM+2% glucose, 48 hours
# Description: Several monoester and one diester overlay candidate were compared to IPM for production of divarinic acid and divarin. LSC3-13 precultures were inoculated from YPD streak plates and grown in 300 μL Delft medium+0.79 g/L complete supplement mixture (CSM) (ForMedium, Norfolk, UK)+2% (w/v) glucose in round-bottom square well 96 well deepwell plates for approximately 18 hours overnight at 30° C. with 950 rpm shaking in an Infors plate shaker. 96 well deepwell plate wells containing 300 μL of Delft medium+CSM+2% (w/v) glucose, 60 μL of different overlay solvents, and 0.08% (w/v) butyric acid, were inoculated with 10 μL of preculture and grown for 30° C. with 950 rpm shaking. After 48 hours, the aqueous layer and overlay were sampled on a Bravo automated liquid handling platform (Agilent) and samples from the aqueous and organic overlay phases were subjected to HPLC analysis to measure divarinic acid and divarin production.
row,Compound,partitioning into monoester overlays compared with olivetolic acid and olivetol
1,"CCCc1cc(O)cc(O)c1 [divarin, 1,3-dihydroxy-5-propylbenzene]",partition less effectively
2,"CCCc1cc(O)cc(O)c1C(=O)O [divarinic acid, 2,4-dihydroxy-6-propylbenzoic acid]",partition less effectively

# System: not listed separately
# Test: Partitioning of olivetolic acid between organic overlay and aqueous culture phase (shake flask, HPLC)
# Type: physicochemical
# Conditions: IPM overlay; YP+2% galactose culture, not acidified
# Description: Precultures of LSC3-2 and LSC3-18 were inoculated from YPD streak plates and grown in 30 mL of YP+2% (w/v) glucose in baffled 250 mL shake flasks for approximately 18 hours overnight at 30° C. with 200 rpm shaking. Baffled 250 mL shake flasks containing 30 mL of YP+2% (w/v) galactose, 5 mL of IPM or diethyl sebacate, and 0.04% (w/v) hexanoic acid, were inoculated with 1 mL of preculture and grown for at 30° C. with 200 rpm shaking. After 24 and 48 hours, samples of cell culture broth plus overlay were sampled into microcentrifuge tubes and stored at −20° C. at least overnight. Sample tubes were thawed and aqueous sample and overlay sample were pipetted into plates for HPLC analysis. Overlay samples were diluted 1:1 v/v with methanol in the HPLC plate prior to analysis.
row,Compound,partitioning between overlay and aqueous phase
1,"CCCCCc1cc(O)cc(O)c1C(=O)O [OA, olivetolic acid]",partitioned between the IPM and aqueous phases

# Same assay, conditions: diethyl sebacate overlay; YP+2% galactose culture, not acidified
row,Compound,partitioning between overlay and aqueous phase
1,"CCCCCc1cc(O)cc(O)c1C(=O)O [OA, olivetolic acid]",entirely partitioned into diethyl sebacate

# — patent US20230175022A1 (priority 2020, published 2023)
